The record followed here is ChEMBL document CHEMBL1154552, “Two new prenylated 3-benzoxepin derivatives as cyclooxygenase inhibitors from Perilla frutescens var. acuta” (J Nat Prod, 2000).

In test [1] the target is T1, Prostaglandin G/H synthase 1 (Ovis aries, UniProt P05979).
T1 sequence (P05979 whole entry): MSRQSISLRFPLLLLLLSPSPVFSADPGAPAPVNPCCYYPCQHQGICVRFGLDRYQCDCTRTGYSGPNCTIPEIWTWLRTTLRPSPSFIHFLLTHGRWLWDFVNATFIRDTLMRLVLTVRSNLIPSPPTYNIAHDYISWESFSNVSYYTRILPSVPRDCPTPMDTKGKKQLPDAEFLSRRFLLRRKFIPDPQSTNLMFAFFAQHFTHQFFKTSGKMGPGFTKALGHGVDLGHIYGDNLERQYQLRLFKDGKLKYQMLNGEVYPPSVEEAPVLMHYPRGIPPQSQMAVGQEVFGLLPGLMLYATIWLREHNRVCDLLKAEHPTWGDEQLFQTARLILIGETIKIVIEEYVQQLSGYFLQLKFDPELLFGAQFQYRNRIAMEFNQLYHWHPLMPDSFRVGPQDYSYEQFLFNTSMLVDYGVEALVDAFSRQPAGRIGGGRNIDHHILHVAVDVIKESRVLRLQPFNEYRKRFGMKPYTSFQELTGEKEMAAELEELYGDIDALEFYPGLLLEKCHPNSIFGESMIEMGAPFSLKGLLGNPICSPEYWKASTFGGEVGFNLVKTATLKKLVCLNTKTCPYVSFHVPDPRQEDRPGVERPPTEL
Nature of the test: Inhibition of COX1 in ram seminal vesicle microsomes assessed as reduction of PGE2 formation. Also noted: species or system Microsome.

Test [2] concerns the target T2, Prostaglandin G/H synthase 1 (Ovis aries) (UniProt P05979).
T2 sequence (whole entry): T1 sequence (P05979 whole entry)
The settings on record: Seminal vesicle, Microsome, 5 uM.
Description: Inhibition of COX1 in ram seminal vesicle microsomes assessed as reduction of PGE2 formation at 5 uM

As for `COc1cc2cc(C(C)(C)O)oc2c2c1C=COC=C2`, the IC50 – broadly, the concentration that inhibits the measured activity by half – in test [1] worked out at 30.4 µM. `COc1ccc2c(c1)c(CC(=O)O)c(C)n2C(=O)c1ccc(Cl)cc1`: the inhibition (as a rule, the change of the read-out against control, counted positive when it falls) in test [2] was determined as 0.2%. With `COc1cc2c(c3c1C=COC=C3)O[C@@H](C(C)(C)O)C2` [PERILLOXIN], the IC50 in test [1] was determined as 23.2 µM.
